The source of these data is patent US8273773B2 (priority 2008, dated 2012).

Data set [1] addresses T1, HCV polymerase (NS5B570n-Con1) (Hepatitis C virus genotype 1b, UniProt Q9WMX2).
T1 construct: contains a 21 amino acid deletion at the C-terminus relative to the full-length HCV polymerase; 6-histidine (N); made in house; host or cells: E. coli strain BL21(DE) pLysS (pET17b)
The data set is described as follows: biochemical. Details: species or system HCV Con1 strain.

[2] abbreviates: IC50 HCV NS5B RNA Polymerase Assay, values without asterisk, 20 nM NS5B570n-Con1 enzyme, 20 nM cIRES RNA template.
Setting [3] is: IC50 HCV NS5B RNA Polymerase Assay (values with asterisk), values with asterisk: cIRES RNA template, 3 nM NS5B570n-Con1.
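For IC50 in this document: recombinant His-tagged enzyme from E. coli, radiolabeled nucleotide incorporation into acid-insoluble RNA read by scintillation after filtration, no-enzyme background subtracted, activity relative to positive control.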

Consider `CS(=O)(=O)Nc1ccc(/C=C/c2cc(-c3ccc[nH]c3=O)cc(C3(CO)CC3)c2)cc1`, for which the melting point was 148 to 150 °C. `COc1c(/C=C/c2ccc(NS(C)(=O)=O)cn2)cc(-c2ccc[nH]c2=O)cc1C(C)(C)C` showed a melting point of 293 to 295 °C. Compound `COc1c(/C=C/c2ccc(NS(C)(=O)=O)cc2)cc(-c2cc(F)cn(COC(=O)[C@@H](N)C(C)C)c2=O)cc1C(C)(C)C` gave a melting point of 188 to 190 °C. As for `COc1c(/C=C/c2ccc(NS(C)(=O)=O)cc2)cc(-c2cc(F)cn(COP(=O)(O)O)c2=O)cc1C(C)(C)C`, the melting point was 175 to 178 °C. The compound `CC(C)(C)c1ccc(O)c(-c2ccc[nH]c2=O)c1` [I-2] came in with a melting point of 211 to 212 °C. The IC50 in data set [1] (setting [2]) stood at 3580 nM.

The compound `Cc1cc(-c2ccc[nH]c2=O)cc(C(C)(C)C)c1` [I-3] displayed a melting point of 224 to 225 °C. The compound further registered an IC50 in data set [1] (setting [2]) of 525 nM. In turn, `CCOc1ccc(-c2ccc[nH]c2=O)cc1C(C)(C)C` [I-5] had a melting point of 201 to 202 °C. Also, the IC50 in data set [1] (setting [2]) was 4680 nM. On to `CC(C)(C)c1cc(-c2ccc[nH]c2=O)ccc1OC(F)F` [I-6, 3-(3-tert-Butyl-4-difluoromethoxy-phenyl)-1H-pyridin-2-one], for which the melting point is 174 to 175 °C. In data set [1] (setting [2]), this compound returned an IC50 of 2570 nM. For `Cc1cc(-c2cc(C)c[nH]c2=O)cc(C(C)(C)C)c1` [I-7], in that order: 212 to 213 °C and 3260 nM. Turning to `Cc1cc(-c2cc(Cl)c[nH]c2=O)cc(C(C)(C)C)c1` [I-8], the melting point is 232 to 233 °C. The same compound showed an IC50 in data set [1] (setting [2]) of 1960 nM. For `CCC(C)(C)c1cc(Br)c(O)c(-c2ccc[nH]c2=O)c1` [I-9], in that order: 257.2 to 257.7 °C and 3100 nM. With `CC(C)(C)c1cc(CO)c(O)c(-c2ccc[nH]c2=O)c1` [I-10], the melting point lay in the range of 167 to 168 °C. Moreover, the IC50 in data set [1] (setting [2]) came out at 1600 nM.

`Cc1cc(C(C)(C)C)cc(-c2ccc[nH]c2=O)c1O` [I-11] returned a melting point of 207 to 208.5 °C. For the same compound, in data set [1] (setting [2]), inhibition was half-maximal at 340 nM (IC50). On to `CC(C)(C)c1cc(Br)c(O)c(-c2ccc[nH]c2=O)c1` [I-13], for which the melting point is 243.4 to 246.2 °C. This compound also showed an IC50 in data set [1] (setting [2]) of 360 nM.

Compound `CCc1cc(C(C)(C)C)cc(-c2ccc[nH]c2=O)c1O` [I-14] had a melting point of 224.2 to 226.2 °C. Besides, in data set [1] (setting [2]), the IC50 was 332 nM. Taken in the same sequence, the figures for `CC(C)(C)c1cc(-c2ccccc2)c(O)c(-c2ccc[nH]c2=O)c1` [I-15] were 235.8 to 237 °C and 2920 nM.

Consider `CC(C)(C)c1cc(Cl)c(O)c(-c2ccc[nH]c2=O)c1` [I-16], for which the melting point lay in the range of 211.4 to 213.5 °C. This compound also returned an IC50 in data set [1] (setting [2]) of 532 nM.

Regarding `CC(C)(C)c1cc(Cc2ccccc2)c(O)c(-c2ccc[nH]c2=O)c1` [I-17], the melting point was in the range of 236 to 237 °C. It took 293 nM to reach half-maximal inhibition in data set [1] (setting [2]) (IC50). Taken in the same sequence, the figures for `COc1c(C(=O)NC2CC2)cc(-c2ccc[nH]c2=O)cc1C(C)(C)C` [I-19] were 223 to 224 °C and 1620 nM. Taken in the same sequence, the figures for `CC(C)(C)c1cc(CCc2ccc(F)cc2)c(O)c(-c2ccc[nH]c2=O)c1` [I-20] were 178 to 179 °C and 378 nM. Taken in the same sequence, the figures for `COc1c(CCc2ccc(F)cc2)cc(-c2ccc[nH]c2=O)cc1C(C)(C)C` [I-21] were 157 to 158 °C and 90 nM. In turn, `COc1c(CCC(=O)O)cc(-c2ccc[nH]c2=O)cc1C(C)(C)C` [I-22] gave a melting point of 180.2 to 181.8 °C. The same compound came in with an IC50 in data set [1] (setting [2]) of 330 nM. For `COc1c(O)cc(-c2ccc[nH]c2=O)cc1C(C)(C)C` [I-23], the melting point lay within 214 to 215 °C. In data set [1] (setting [2]), the IC50 came to 1170 nM.

In turn, `COc1c(NC(=O)c2ccc(N)cc2Cl)cc(-c2ccc[nH]c2=O)cc1C(C)(C)C` [I-25] showed a melting point of 226 to 228 °C. The IC50 in data set [1] (setting [2]) is 31 nM. Taken in the same sequence, the figures for `COc1cc(-c2ccc[nH]c2=O)cc(C(C)(C)C)c1OC` [I-26] were 206.3 to 207.1 °C and 866 nM.

Turning to `COc1c(C)cc(-c2ccc[nH]c2=O)cc1C(C)(C)C` [I-29], the melting point was 176 to 178 °C. For the same compound, the IC50 in data set [1] (setting [2]) was found to be 521 nM. For `CCc1cc(-c2ccc[nH]c2=O)cc(C(C)(C)C)c1OC` [I-30], in that order: 213 to 214 °C and 728 nM. For `CC(C)(C)c1cc(Oc2ccccc2)cc(-c2ccc[nH]c2=O)c1` [I-45, 3-(3-tert-Butyl-5-phenoxy-phenyl)-1H-pyridin-2-one], in that order: 90 to 91 °C and 786 nM. Taken in the same sequence, the figures for `CC(C)(C)c1cc(Cc2ccccc2)cc(-c2ccc[nH]c2=O)c1` [I-46, 3-(3-Benzyl-5-tert-butyl-phenyl)-1H-pyridin-2-one] were 180 to 181 °C and 534 nM. `COc1c(Cc2ccccc2)cc(-c2ccc[nH]c2=O)cc1C(C)(C)C` [I-48] gave a melting point of 202.6 to 204.3 °C. Besides, the IC50 in data set [1] (setting [2]) stood at 528 nM. Taken in the same sequence, the figures for `COc1c(C(=O)c2cccc(F)c2)cc(-c2ccc[nH]c2=O)cc1C(C)(C)C` [I-49] were 209 to 210 °C and 71 nM.

Consider `COc1c(C(=O)c2ccc(F)cc2)cc(-c2ccc[nH]c2=O)cc1C(C)(C)C` [I-50], for which the melting point was in the range of 203 to 205 °C. Further, the IC50 in data set [1] (setting [2]) is 52 nM. `CC(C)(C)c1cc(CCc2ccc(NS(C)(=O)=O)cc2)c(O)c(-c2ccc[nH]c2=O)c1` [I-51, N-(4-{2-[5-tert-Butyl-2-hydroxy-3-(2-oxo-1,2-dihydro-pyridin-3-yl)-phenyl]-ethyl}-phenyl)-methanesulfonamide] had a melting point of 96.4 to 135.6 °C. Moreover, half-maximal inhibition in data set [1] (setting [2]) (IC50) was put at 10 nM.

`COc1c(C(=O)c2cc(F)cc(F)c2)cc(-c2ccc[nH]c2=O)cc1C(C)(C)C` [I-52]: the melting point was in the range of 197.1 to 198.6 °C. This compound also registered a 50% inhibitory concentration (IC50) in data set [1] (setting [2]) of 143 nM.

In turn, `Cc1cc(-c2cc(F)c[nH]c2=O)cc(C(C)(C)C)c1` [I-53] yielded a melting point of 244 to 246 °C. Further, inhibition in data set [1] (setting [2]) was half-maximal at 1930 nM (IC50). Take `COc1c(C(=O)c2cccc(O)c2)cc(-c2ccc[nH]c2=O)cc1C(C)(C)C` [I-54]: the melting point fell in the range of 145 to 148 °C. The compound further came in with a concentration for half-maximal inhibition (IC50) in data set [1] (setting [2]) of 9 nM. In turn, `COc1c(C(=O)c2ccc(O)cc2)cc(-c2ccc[nH]c2=O)cc1C(C)(C)C` [I-55] showed a melting point of 185 to 187 °C. In data set [1] (setting [2]), this compound gave an IC50 of 59 nM.

`COc1ccc(-c2ccc[nH]c2=O)c(F)c1C(C)(C)C` [I-56, 3-(3-tert-Butyl-2-fluoro-4-methoxy-phenyl)-1H-pyridin-2-one] returned a melting point of 164.5 to 166 °C. In data set [1] (setting [2]), this compound displayed an IC50 of 136 nM.

The compound `COc1c(C(=O)c2sccc2C)cc(-c2ccc[nH]c2=O)cc1C(C)(C)C` [I-57] registered a melting point of 123.3 to 125.5 °C. The IC50 in data set [1] (setting [2]) was determined as 61 nM. As to `COc1c(NC(=O)c2ccccc2)cc(-c2ccc[nH]c2=O)cc1C(C)(C)C` [I-58], the melting point was 212 to 216 °C. In data set [1] (setting [2]), this compound returned an IC50 of 34 nM. For `COc1c(C(=O)c2cccc(N)c2)cc(-c2ccc[nH]c2=O)cc1C(C)(C)C` [I-59, 3-[3-(3-amino-benzoyl)-5-tert-butyl-4-methoxy-phenyl]-1H-pyridin-2-one], in that order: 145 to 150 °C and 9 nM.

In turn, `COc1ccc(-c2ccc[nH]c2=O)cc1C1(C)CC1` [I-61] showed a melting point of 194 to 195 °C. The compound further came in with an IC50 in data set [1] (setting [2]) of 1230 nM. In turn, `COc1ccc(-c2ccc[nH]c2=O)cc1C(C)(C)OC` [I-62] yielded a melting point of 154 to 155 °C. Besides, the 50% inhibitory concentration (IC50) in data set [1] (setting [2]) is 4130 nM. In turn, `COc1c(NC(=O)c2ccc(NS(C)(=O)=O)cc2OCCN(C)C)cc(-c2ccc[nH]c2=O)cc1C(C)(C)C` [I-285] came in with an IC50 in data set [1] (setting [2]) of 149 nM. On the same count and under the same terms, the figure for `COc1c(NC(=O)c2ccc(NS(C)(=O)=O)cc2)cc(-c2ccc(C)[nH]c2=O)cc1C(C)(C)C` [I-286] is 19 nM; for `COc1c(CCc2ccc(NS(C)(=O)=O)cc2)cc(-c2ccc[nH]c2=O)c(F)c1C(C)(C)C` [I-287, N-(4-{2-[3-tert-Butyl-4-fluoro-2-methoxy-5-(2-oxo-1,2-dihydro-pyridin-3-yl)-phenyl]-ethyl}-phenyl)-methanesulfonamide] it is 9 nM. In turn, `COc1c(/C=C/c2ccc(NS(C)(=O)=O)cc2)cc(-c2ccc[nH]c2=O)cc1C(C)(C)OC` [I-289, N-(4-{(E)-2-[2-Methoxy-3-(1-methoxy-1-methyl-ethyl)-5-(2-oxo-1,2-dihydro-pyridin-3-yl)-phenyl]-vinyl}-phenyl)-methanesulfonamide] yielded an IC50 in data set [1] (setting [3]) of 2 nM. Still for that read-out and setting: the figure for `COc1c(/C=C/c2ccc(NS(C)(=O)=O)cc2)cc(-c2cc(Cl)c[nH]c2=O)cc1C1(C)COC1` [I-291] is 2 nM; for `COc1c(/C=C/c2ccc(NS(C)(=O)=O)cc2)cc(-c2cc(Cl)c[nH]c2=O)cc1C1CC1` [I-292, N-(4-{(E)-2-[5-(5-Chloro-2-oxo-1,2-dihydro-pyridin-3-yl)-3-cyclopropyl-2-methoxy-phenyl]-vinyl}-phenyl)-methanesulfonamide] it is 29 nM.

`CN(C(=O)c1ccc(NS(C)(=O)=O)cc1)c1cc(-c2ccc[nH]c2=O)cc(C(C)(C)C)c1` [I-293, N-[3-tert-Butyl-5-(2-oxo-1,2-dihydro-pyridin-3-yl)-phenyl]-4-methanesulfonylamino-N-methyl-benzamide] yielded an IC50 in data set [1] (setting [2]) of 7 nM.

Take `CCOc1nc(-c2cc(-c3ccc[nH]c3=O)cc(C(C)(C)C)c2OC)cc2ccc(NS(C)(=O)=O)cc12` [II-9, N-{3-[3-tert-Butyl-2-methoxy-5-(2-oxo-1,2-dihydro-pyridin-3-yl)-phenyl]-1-ethoxy-isoquinolin-7-yl}-methanesulfonamide]: the IC50 in data set [1] (setting [2]) is 3 nM.
